Test results published in patent US11890279B2, “Quinolines that modulate SERCA and their use for treating disease” (Neurodon Corporation, priority 2020, dated 2024).

System: CSM14.1 cells
Experiment: ER stress cell survival assay (thapsigargin);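 note: survival read as CellTiter-Glo luminescence after overnight incubation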
Assay type: cell-based
Settings: compound 2 μM; about 15 μM thapsigargin; CSM14.1 cells

## Cc1ccc2cccc(NC(=O)c3ccc(N(C)C)cc3)c2n1 [Compound C18, 4-N,N-Dimethylamino-N-(2-methylquinolin-8-yl)benzamide]
  Cell Survival: B (B represents a value between 10% and 50%)
